Results reported in US9211310B2, “Use of a Chinese medicine composition in preparing medicaments for treating secondary prevention of myocardial infarction” (TASLY PHARMACEUTICAL GROUP CO., LTD, priority 2010, dated 2015).

System: patients after acute myocardial infarction
Assay: Life quality, Seattle Angina Questionnaire (SAQ), same clinical trial
Format: in vivo, human
Conditions: FAS; 6 months after treatment
Source text: 3508 patients who were in accordance with the diagnostic standards of AMI for 28 days to 2 years and differentiated as Qi deficiency and blood stagnation syndrome by TCM were studied. 0.5 g Chinese medicine composition prepared by the method of EXAMPLE 1 (Coded as QSYQ) was administrated half an hour after meal, 3 times per day.
There were 19 questions in the Seattle angina questionnaire (SAQ), including 5 parts: physical limitation (PL), anginal stability (AS), anginal frequency (AF), treatment satisfaction (TS) and disease perception (DP). After being given necessary explanation by doctors, the questions were answered independently by patients.
They included the overall survival time, angina pectoris score, TCM symptom score and life quality score, where angina pectoris score, TCM symptom score and life quality score were evaluated at randomization, in 1st, 3rd, 6th, 9th, 12th month after treatment and 18th month after follow-up.
All evaluation results of SAQ were described during the period of observation, and Wilcoxon rank sum test was used for inter-group comparison.
The evaluation results in the SAQ were depicted in different observations, and inter-group comparison was tested by Wilcoxon Rank-sum test.

Question: With `CC(=O)Oc1ccccc1C(=O)O` [Control group, aspirine] as the molecule, how does the “SAQ 4th question, 1-3 times per day: number of patients” value read?
Answer: The value was 82.

Question: And the “SAQ 4th question, <1 time per week: % of patients” value?
Answer: Its value is “(11.98%)”.

Question: What about the “SAQ 4th question, <1 time per week: number of patients” value of the same molecule?
Answer: The value was 209.

Question: What about the “SAQ 4th question, Not used: % of patients” value of the same molecule?
Answer: The value was “(58.37%)”.

Question: What about the “SAQ 4th question, Not used: number of patients” value of the same molecule?
Answer: Its value is 1018.

Question: And the “SAQ 4th question, ≧3 times per week: % of patients” value?
Answer: The value was “(7.28%)”.

Question: What about the “SAQ 4th question, ≧3 times per week: number of patients” value of the same molecule?
Answer: The value was 127.

Question: And the “SAQ 4th question, ≧4 times per day: % of patients” value?
Answer: The value was “(0.11%)”.

Question: And the “SAQ 4th question, ≧4 times per day: number of patients” value?
Answer: Its value is 2.

Question: What about the “SAQ 5th question, 1-2 times per week: % of patients” value of the same molecule?
Answer: Its value is “(26.38%)”.

Question: And the “SAQ 5th question, 1-2 times per week: number of patients” value?
Answer: The value was 460.

Question: What about the “SAQ 5th question, 1-3 times per day: % of patients” value of the same molecule?
Answer: The value was “(11.53%)”.

Question: What about the “SAQ 5th question, 1-3 times per day: number of patients” value of the same molecule?
Answer: The value was 201.

Question: What about the “SAQ 5th question, <1 time per week: % of patients” value of the same molecule?
Answer: Its value is “(28.10%)”.

Question: And the “SAQ 5th question, <1 time per week: number of patients” value?
Answer: The value was 490.

Question: What about the “SAQ 5th question, No onset: % of patients” value of the same molecule?
Answer: The value was “(4.30%)”.

Question: What about the “SAQ 5th question, No onset: number of patients” value of the same molecule?
Answer: Its value is 75.

Question: And the “SAQ 5th question, ≧3 times per week: % of patients” value?
Answer: The value was “(28.84%)”.

Question: What about the “SAQ 5th question, ≧3 times per week: number of patients” value of the same molecule?
Answer: Its value is 503.

Question: What about the “SAQ 5th question, ≧4 times per day: % of patients” value of the same molecule?
Answer: Its value is “(0.86%)”.

Question: What about the “SAQ 5th question, ≧4 times per day: number of patients” value of the same molecule?
Answer: Its value is 15.

Question: And the “SAQ 6th question, Dissatisfied: % of patients” value?
Answer: Its value is “(0.17%)”.

Question: And the “SAQ 6th question, Dissatisfied: number of patients” value?
Answer: Its value is 3.

Question: What about the “SAQ 6th question, Highly satisfied: % of patients” value of the same molecule?
Answer: The value was “(21.62%)”.

Question: And the “SAQ 6th question, Highly satisfied: number of patients” value?
Answer: The value was 377.

Question: What about the “SAQ 6th question, Mostly dissatisfied: % of patients” value of the same molecule?
Answer: Its value is “(1.95%)”.

Question: What about the “SAQ 6th question, Mostly dissatisfied: number of patients” value of the same molecule?
Answer: Its value is 34.

Question: And the “SAQ 6th question, Mostly satisfied: % of patients” value?
Answer: Its value is “(55.73%)”.

Question: And the “SAQ 6th question, Mostly satisfied: number of patients” value?
Answer: The value was 972.

Question: What about the “SAQ 6th question, Partly satisfied: % of patients” value of the same molecule?
Answer: The value was “(20.53%)”.

Question: And the “SAQ 6th question, Partly satisfied: number of patients” value?
Answer: Its value is 358.

Question: What about the “SAQ 7th question, Dissatisfied: % of patients” value of the same molecule?
Answer: The value was “(0.11%)”.

Question: And the “SAQ 7th question, Dissatisfied: number of patients” value?
Answer: The value was 2.

Question: What about the “SAQ 7th question, Highly satisfied: % of patients” value of the same molecule?
Answer: The value was “(25.03%)”.

Question: And the “SAQ 7th question, Highly satisfied: number of patients” value?
Answer: The value was 436.

Question: And the “SAQ 7th question, Mostly dissatisfied: % of patients” value?
Answer: Its value is “(1.32%)”.

Question: What about the “SAQ 7th question, Mostly dissatisfied: number of patients” value of the same molecule?
Answer: The value was 23.

Question: What about the “SAQ 7th question, Mostly satisfied: % of patients” value of the same molecule?
Answer: The value was “(58.21%)”.

Question: What about the “SAQ 7th question, Mostly satisfied: number of patients” value of the same molecule?
Answer: The value was 1014.

Question: And the “SAQ 7th question, Partly satisfied: % of patients” value?
Answer: The value was “(15.33%)”.

Question: What about the “SAQ 7th question, Partly satisfied: number of patients” value of the same molecule?
Answer: The value was 267.

Question: And the “SAQ Question 1-1 Mildly limited, number of patients” value?
Answer: Its value is 29.

Question: And the “SAQ Question 1-1 Mildly limited, percent of patients” value?
Answer: Its value is “(1.66%)”.

Question: What about the “SAQ Question 1-1 Moderately limited, number of patients” value of the same molecule?
Answer: Its value is 4.

Question: What about the “SAQ Question 1-1 Moderately limited, percent of patients” value of the same molecule?
Answer: Its value is “(0.23%)”.

Question: And the “SAQ Question 1-1 Not limited, number of patients” value?
Answer: The value was 1638.

Question: And the “SAQ Question 1-1 Not limited, percent of patients” value?
Answer: The value was “(93.92%)”.

Question: And the “SAQ Question 1-1 Other reasons, number of patients” value?
Answer: The value was 3.

Question: What about the “SAQ Question 1-1 Other reasons, percent of patients” value of the same molecule?
Answer: The value was “(0.17%)”.

Question: And the “SAQ Question 1-1 Severely limited, number of patients” value?
Answer: The value was 1.

Question: And the “SAQ Question 1-1 Severely limited, percent of patients” value?
Answer: Its value is “(0.06%)”.

Question: What about the “SAQ Question 1-1 Slightly limited, number of patients” value of the same molecule?
Answer: Its value is 69.

Question: What about the “SAQ Question 1-1 Slightly limited, percent of patients” value of the same molecule?
Answer: Its value is “(3.96%)”.

Question: And the “SAQ Question 1-2 Mildly limited, number of patients” value?
Answer: The value was 27.

Question: What about the “SAQ Question 1-2 Mildly limited, percent of patients” value of the same molecule?
Answer: Its value is “(1.55%)”.

Question: What about the “SAQ Question 1-2 Moderately limited, number of patients” value of the same molecule?
Answer: The value was 8.

Question: What about the “SAQ Question 1-2 Moderately limited, percent of patients” value of the same molecule?
Answer: Its value is “(0.46%)”.

Question: And the “SAQ Question 1-2 Not limited, number of patients” value?
Answer: The value was 1615.

Question: And the “SAQ Question 1-2 Not limited, percent of patients” value?
Answer: The value was “(92.60%)”.

Question: What about the “SAQ Question 1-2 Other reasons, number of patients” value of the same molecule?
Answer: Its value is 6.

Question: And the “SAQ Question 1-2 Other reasons, percent of patients” value?
Answer: Its value is “(0.34%)”.

Question: And the “SAQ Question 1-2 Severely limited, number of patients” value?
Answer: The value was 1.

Question: What about the “SAQ Question 1-2 Severely limited, percent of patients” value of the same molecule?
Answer: Its value is “(0.06%)”.

Question: What about the “SAQ Question 1-2 Slightly limited, number of patients” value of the same molecule?
Answer: Its value is 87.

Question: What about the “SAQ Question 1-2 Slightly limited, percent of patients” value of the same molecule?
Answer: The value was “(4.99%)”.

Question: And the “SAQ Question 1-6: Mildly limited, patients (%)” value?
Answer: Its value is “(16.49%)”.

Question: And the “SAQ Question 1-6: Moderately limited, patients (%)” value?
Answer: Its value is “(11.78%)”.

Question: And the “SAQ Question 1-6: Not limited, patients (%)” value?
Answer: The value was “(34.20%)”.

Question: What about the “SAQ Question 1-6: Other reasons, patients (%)” value of the same molecule?
Answer: Its value is “(0.98%)”.

Question: What about the “SAQ Question 1-6: Severely limited, patients (%)” value of the same molecule?
Answer: The value was “(3.85%)”.

Question: And the “SAQ Question 1-6: Slightly limited, patients (%)” value?
Answer: The value was “(32.70%)”.

Question: What about the “SAQ Question 1-7: Mildly limited, patients (%)” value of the same molecule?
Answer: Its value is “(21.23%)”.

Question: What about the “SAQ Question 1-7: Moderately limited, patients (%)” value of the same molecule?
Answer: The value was “(13.48%)”.

Question: What about the “SAQ Question 1-7: Not limited, patients (%)” value of the same molecule?
Answer: Its value is “(14.52%)”.

Question: What about the “SAQ Question 1-7: Other reasons, patients (%)” value of the same molecule?
Answer: Its value is “(3.53%)”.

Question: And the “SAQ Question 1-7: Severely limited, patients (%)” value?
Answer: Its value is “(15.33%)”.

Question: And the “SAQ Question 1-7: Slightly limited, patients (%)” value?
Answer: The value was “(31.93%)”.
